ChEMBL document CHEMBL1141053, “Synthesis and SAR of novel oxazolidinones: discovery of ranbezolid” (2005)
≈ marks a conversion by molar mass, not a printed value.

Columns and labels:
Assay type in all cases: functional
[1] = system: Enterococcus faecalis; experiment: In vitro minimum inhibitory concentration against Enterococcus faecalis ATCC 29212 after incubation in air at 35 degree C for 24 hr using agar dilution method; conditions: ATCC 29212, 24 h
[2] = system: Staphylococcus aureus; experiment: In vitro minimum inhibitory concentration against Staphylococcus aureus ATCC 25923 after incubation in air at 35 degree C for 24 hr using agar dilution method; conditions: ATCC 25923, 24 h
[3] = system: Streptococcus pyogenes; experiment: In vitro minimum inhibitory concentration against Streptococcus pyogenes ATCC 19615 after incubation in air at 35 degree C for 24 hr using agar dilution method; conditions: ATCC 19615, 24 h
[4] = system: Streptococcus pneumoniae; experiment: In vitro minimum inhibitory concentration against Streptococcus pneumoniae ATCC 6303 after incubation in air at 35 degree C for 24 hr using agar dilution method; conditions: ATCC 6303, 24 h
[5] = system: Enterococcus faecium; experiment: In vitro minimum inhibitory concentration against vancomycin-resistant Enterococcus faecium 6A after incubation in air at 35 degree C for 24 hr using agar dilution method
[6] = system: Staphylococcus aureus; experiment: In vitro minimum inhibitory concentration against methicillin-resistant Staphylococcus aureus 562 after incubation in air at 35 degree C for 24 hr using agar dilution method
[7] = system: Staphylococcus aureus; experiment: In vivo effective dose (on day 7-post-infection) against methicillin-resistant Staphylococcus aureus 562 infected mice upon peroral administration at 30 min and 4 hr post-infection; conditions: po

SMILES | MIC [1] | MIC [2] | MIC [3] | MIC [4] | MIC [5] | MIC [6] | ED50 [7]
CC(=O)NC[C@H]1CN(c2ccc(N3CCN(Cc4ccoc4[N+](=O)[O-])CC3)c(F)c2)C(=O)O1 | 4 µg/mL (≈ 8.67 µM) | 8 µg/mL (≈ 17.3 µM) | 1 µg/mL (≈ 2.17 µM) | 1 µg/mL (≈ 2.17 µM) | 4 µg/mL (≈ 8.67 µM) | 4 µg/mL (≈ 8.67 µM) | 
CC(=O)NC[C@H]1CN(c2ccc(N3CCN(Cc4ccc([N+](=O)[O-])n4C)CC3)c(F)c2)C(=O)O1 | 4 µg/mL (≈ 8.43 µM) | 4 µg/mL (≈ 8.43 µM) | 2 µg/mL (≈ 4.22 µM) | 8 µg/mL (≈ 16.9 µM) | 4 µg/mL (≈ 8.43 µM) | 4 µg/mL (≈ 8.43 µM) | 
CC(=O)NC[C@H]1CN(c2ccc(N3CCN(Cc4ccc(COC(C)=O)o4)CC3)c(F)c2)C(=O)O1 | > 16 µg/mL | > 16 µg/mL | > 16 µg/mL | > 16 µg/mL | > 16 µg/mL | > 16 µg/mL | 
CC(=O)NC[C@H]1CN(c2ccc(N3C[C@@H]4[C@H](C3)[C@H]4N(C)c3ccc([N+](=O)[O-])o3)c(F)c2)C(=O)O1 | 1 µg/mL (≈ 2.11 µM) | 2 µg/mL (≈ 4.22 µM) | 0.06 µg/mL (≈ 0.127 µM) | 2 µg/mL (≈ 4.22 µM) | 2 µg/mL (≈ 4.22 µM) |  | 
CC(=O)NC[C@H]1CN(c2ccc(N3CCN(Cc4ccc(C)o4)CC3)c(F)c2)C(=O)O1 | > 16 µg/mL | > 16 µg/mL | > 16 µg/mL | > 16 µg/mL | > 16 µg/mL | > 16 µg/mL | 
CC(=O)NC[C@H]1CN(c2ccc(N3CCN(Cc4ccc(/C=N/N)o4)CC3)c(F)c2)C(=O)O1 | 8 µg/mL (≈ 17.4 µM) | 2 µg/mL (≈ 4.36 µM) | 8 µg/mL (≈ 17.4 µM) | 8 µg/mL (≈ 17.4 µM) | 8 µg/mL (≈ 17.4 µM) | 1 µg/mL (≈ 2.18 µM) | 
CC(=O)NC[C@H]1CN(c2ccc(N3CCN(Cc4ccc(Cl)o4)CC3)c(F)c2)C(=O)O1 | > 16 µg/mL | > 16 µg/mL | > 16 µg/mL | > 16 µg/mL | > 16 µg/mL | > 16 µg/mL | 
CC(=O)NC[C@H]1CN(c2ccc(N3CCN(Cc4ccc(C#N)o4)CC3)c(F)c2)C(=O)O1 | 16 µg/mL (≈ 36.2 µM) | 16 µg/mL (≈ 36.2 µM) | 16 µg/mL (≈ 36.2 µM) | 16 µg/mL (≈ 36.2 µM) | 16 µg/mL (≈ 36.2 µM) | 16 µg/mL (≈ 36.2 µM) | 
CC(=O)NC[C@H]1CN(c2ccc(N3CCN(Cc4ccco4)CC3)c(F)c2)C(=O)O1 | 8 µg/mL (≈ 19.2 µM) | 8 µg/mL (≈ 19.2 µM) | 4 µg/mL (≈ 9.6 µM) | 8 µg/mL (≈ 19.2 µM) | 8 µg/mL (≈ 19.2 µM) | 8 µg/mL (≈ 19.2 µM) | > 25 mg/kg
CC(=O)NC[C@H]1CN(c2ccc(N3CCN(Cc4ccc(C=O)o4)CC3)c(F)c2)C(=O)O1 | 8 µg/mL (≈ 18 µM) | 1 µg/mL (≈ 2.25 µM) | 8 µg/mL (≈ 18 µM) | 4 µg/mL (≈ 9 µM) | 8 µg/mL (≈ 18 µM) | 1 µg/mL (≈ 2.25 µM) | > 25 mg/kg
CC(=O)NC[C@H]1CN(c2ccc(N3CCN(Cc4ccc([N+](=O)[O-])o4)CC3C)c(F)c2)C(=O)O1 (stereo partly specified) | 4 µg/mL (≈ 8.41 µM) | 4 µg/mL (≈ 8.41 µM) | 4 µg/mL (≈ 8.41 µM) | 8 µg/mL (≈ 16.8 µM) | 4 µg/mL (≈ 8.41 µM) | 2 µg/mL (≈ 4.21 µM) | 
CC(=O)NC[C@H]1CN(c2ccc(N3CCC(N(C)c4ccc([N+](=O)[O-])o4)CC3)c(F)c2)C(=O)O1 | 0.25 µg/mL (≈ 0.526 µM) | 1 µg/mL (≈ 2.1 µM) | 0.125 µg/mL (≈ 0.263 µM) | 0.5 µg/mL (≈ 1.05 µM) | 0.5 µg/mL (≈ 1.05 µM) | 0.5 µg/mL (≈ 1.05 µM) | 7.43 mg/kg
CC(=O)NC[C@H]1CN(c2ccc(N3CCC(Nc4ccc([N+](=O)[O-])o4)CC3)c(F)c2)C(=O)O1 | 0.5 µg/mL (≈ 1.08 µM) | 1 µg/mL (≈ 2.17 µM) | 0.25 µg/mL (≈ 0.542 µM) | 2 µg/mL (≈ 4.33 µM) | 0.5 µg/mL (≈ 1.08 µM) | 1 µg/mL (≈ 2.17 µM) | 
CC(=O)NC[C@H]1CN(c2ccc(N3CCN(Cc4ccc([N+](=O)[O-])[nH]4)CC3)c(F)c2)C(=O)O1 | 4 µg/mL (≈ 8.69 µM) | 4 µg/mL (≈ 8.69 µM) | 1 µg/mL (≈ 2.17 µM) | 4 µg/mL (≈ 8.69 µM) | 4 µg/mL (≈ 8.69 µM) | 4 µg/mL (≈ 8.69 µM) | 
